Reference: patent EP1900360A1, “Homer a new target of treating psychiatric disorders” (Abbott GmbH & Co. KG, priority 1998, dated 2000)

Columns and labels:
[1] = tested on: methamphetamine-induced hyperactivity; assay: Methamphetamine antagonism (methamphetamine-induced hyperactivity, measurement of locomotor activity); assay type: in vivo, Mice (NMRI); details: drug ip 30 min prior to methamphetamine 1 mg/kg po; counts 15 to 60 min after start of measurement
Experimental: Methamphetamine antagonism was tested by recording methamphetamine-induced hyperactivity (measurement of locomotor activity). Mice (NMRI, 21-26 g; female) received drug or vehicle, intraperitoneally, 30 min prior to methamphetamine (MET, 1 mg/kg po). Locomotor activity was recorded in cages equipped with light beams (2 mice/cage/dose) for 1 h, starting 30 min after MET. For calculation of drug effects the counts recorded during the time period of 15 to 60 min after start of the measurement were selected. The control value was calculated as the difference between the counts recorded for the methamphetamine group and the vehicle-treated group during the same time period.

cataleptic syndrome = assay: Cataleptogenic effects (cataleptic syndrome, method of Wirth et al.); assay type: in vivo, rats, Sprague-Dawley; details: dose 100 mg/kg ip; cataleptic animals / animals per dose; tested 30 to 300 min after administration
Experimental: The cataleptic syndrome was tested according to the method described by Wirth et al. (Arch. Int. Pharmacodyn. Ther. 115, 1-31, 1958). The animals (male rats, Sprague-Dawley bodyweight 210-225 g; n/dose=4) were regarded as cataleptic if they remained in an abnormal posture for more than 15 sec, i.e. one foreleg an a 9-cm-high piece of cork. The animals were tested 30m 60, 120, 180 and 300 min after intraperitoneal administration of the test compound.

homer mRNA = assay: Homer gene expression in brain by in situ hybridization histochemistry; assay type: in vivo, Sprague-Dawley rats; details: for Homer gene expression induced by treatment with amphetamine: brain frontal cortex, amphetamine plus compound
Experimental: Adult Sprague-Dawley rats (250 g) were maintained in normal environmental conditions with free access to food and water ab libitum. Animals were treated with haloperidol (0.5 and 5 mg/kg) or saline. Naive (non-treated) animals were used as additional controls. Animals were also treated with amphetamine or with amphetamine and MPEP or SIB-1893 as described in example 18b. The animals were sacrificed by decapitation 90 minutes after treatment. Whole brain was rapidly removed from the skull, frozen in dry ice and stored at -30°C. Rat brain sections (15 μm) were obtained at -20°C in a cryostat, mounted in gelatine-coated slides and stored at -30°C until used. Olygonucleotide sequences 40 base length were selected from the homer rat gene sequence published in the GENEBANK (accession number: U92079). Antisense oligonucleotide homerAT ([NT]) was complementary to bases 559 to 599. Antisense oligonucleotide homerBT ([NT]) was complementary to bases 894-934. The corresponding sense oligonucleotides (homerAS and homerBS) were used as control probes. Synthesis was performed in a 395 Applied Biosystems DNA Synthesizer. Purified oligonucleotides were dissolved in DEPC-treated water and stored at -30°C until use. Labelling of synthetic oligoprobes was performed using a deoxynucleotidyl-transferase (TdT) labelling kit (NEP-100, NEN, Bad-Homburg, Germany). Briefly, 5 pmol of probe were incubated (2 hr) with TdT (36 units) in presence of 50 pmol of (^35S] dATP (NEN) and Cl2Co. […] Labelling efficacy was checked by paper chromatography in phosphate buffer system. Homer gene expression in rat brain was studied using in situ hybridization techniques well known in the art. In situ hybridization was performed as previously described (Garcia-Ladona et al., 1994). Briefly, Tissue sections were fixed with paraformaldehyde in PBS and treated (min) with pronase (0.25 mg/l), rapidly washed, dehydrated by consecutive incubation with 60%, 80%, 90% and 100% ethanol, rapidly dried and used for hybridization. […]

Row | SMILES | Methamphetamine antagonism ED50 [1] [mg/kg ip] | Cataleptogenic effect [x/n] at dose [mg/kg ip] (cataleptic syndrome) | Homer gene expression induced by treatment with amphetamine (homer mRNA) | homer mRNA transcripts (in situ hybridization images) (homer mRNA; haloperidol 0.5 and 5 mg/kg vs controls, rat brain, 90 minutes after treatment)
1 | Cc1cccc(C=Cc2ccccc2)n1 [BSF 470213, 2-methyl-6-(2-phenylethenyl)-pyridine] | 53.4 | 0/4 at dose 100 | reduced | 
2 | Cc1cccc(C#Cc2ccccc2)n1.Cl [BSF 470214, 2-methyl-8-(phenylethynyl)-pyridine hydrochloride] | 51.2 | 0/4 at dose 100 | reduced | 
3 | O=C(CCCN1CCC(O)(c2ccc(Cl)cc2)CC1)c1ccc(F)cc1 [haloperidol] |  |  |  | higher levels in haloperidol treated animals than in controls
